# Laboratory results as given in patent US20170007561A1, “CONTEMPORANEOUS, HETEROGENEOUSLY-ORIENTED, MULTI-TARGETED THERAPEUTIC MODIFICATION AND/OR MODULATION OF DISEASE BY ADMINISTRATION OF SULFUR-CONTAINING, AMINO ACID-SPECIFIC SMALL MOLECULES” (BioNumerik Pharmaceuticals, Inc., priority 2014, published 2017).
# Entries after “also recorded” stand apart in the source; their conditions may differ.
# How the values were obtained:
# [1] = target: T1, recombinant human farnesyltransferase (Homo sapiens, UniProt P49354+P49356); assay: Farnesyltransferase Dansyl-GCVLS fluorescence assay; type: biochemical
# T1 construct: purchased Abcam
# T1 sequence (P49356 whole entry, one chain of several): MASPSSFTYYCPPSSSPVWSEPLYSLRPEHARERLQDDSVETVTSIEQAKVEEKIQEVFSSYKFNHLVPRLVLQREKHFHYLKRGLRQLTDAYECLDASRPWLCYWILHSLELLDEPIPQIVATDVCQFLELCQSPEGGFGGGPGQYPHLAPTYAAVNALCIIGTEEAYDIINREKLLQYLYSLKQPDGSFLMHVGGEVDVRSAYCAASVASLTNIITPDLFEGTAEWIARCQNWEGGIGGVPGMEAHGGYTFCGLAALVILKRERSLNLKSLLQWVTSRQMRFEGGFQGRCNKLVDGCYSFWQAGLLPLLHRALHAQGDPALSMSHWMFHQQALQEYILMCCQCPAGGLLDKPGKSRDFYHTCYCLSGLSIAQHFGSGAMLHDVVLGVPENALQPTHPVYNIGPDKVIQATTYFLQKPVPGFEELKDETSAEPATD
# Method: Tavocept-inhibited human farnesyltransferase-mediated transfer of farnesylpyrophosphate to the cysteine residue in a danyslated peptide substrate of sequence glycine-cysteine-valine-leucine-serine (designated—Dansyl-GCVLS) in vitro. See, FIG. 79. The assay reactions contained 25 nM recombinant human farnesyltransferase (Abcam), 10 μM farnesylpyrophosphate (SigmaAldrich), 3 μM Dansyl-GCVLS (NeoBioScience) in Tris buffer (50 mM, pH 7.5) containing 5 mM MgCl2, 10 μM ZnCl2, and 0.2% octyl-β-D-glucopyranoside. Total assay volumes were 50 μL and the reactions were initiated by the addition of FTase (5 μL of 250 nM stock was added to 45 μL of assay components listed above). The excitation wavelength was 340 nm (a 340 nm filter with 25 nm bandpass) and the emission wavelength was […] (505 nm filter with 20 nm bandpass) and the assay temperature was 25° C. Progress curves of the transfer of the farnesylpyrophosphate to the Dansyl-GCVLS substrate are shown in FIG. 79, Panel A and relative rates of the progress curve were determined and are shown in FIG. 79, Panel B.
# bovine TrxR = target: T2, bovine TrxR (Bos taurus, UniProt O62768); assay: TrxR NADPH oxidation assay without Trx (Reaction A); type: biochemical
# T2 construct: purchased American Diagnostica
# T2 sequence (O62768 1-499): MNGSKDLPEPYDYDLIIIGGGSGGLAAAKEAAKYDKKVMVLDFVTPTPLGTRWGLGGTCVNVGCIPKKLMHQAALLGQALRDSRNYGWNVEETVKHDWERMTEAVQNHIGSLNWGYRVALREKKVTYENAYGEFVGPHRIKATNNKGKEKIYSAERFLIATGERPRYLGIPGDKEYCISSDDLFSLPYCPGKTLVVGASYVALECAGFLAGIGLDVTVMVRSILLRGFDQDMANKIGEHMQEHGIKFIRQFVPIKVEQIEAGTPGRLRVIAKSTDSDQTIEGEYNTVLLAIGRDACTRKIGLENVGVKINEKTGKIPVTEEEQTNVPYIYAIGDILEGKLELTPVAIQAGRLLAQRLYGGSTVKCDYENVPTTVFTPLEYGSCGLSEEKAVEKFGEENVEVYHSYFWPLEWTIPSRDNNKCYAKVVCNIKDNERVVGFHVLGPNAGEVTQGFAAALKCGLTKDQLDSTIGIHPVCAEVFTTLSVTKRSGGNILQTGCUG
# [2] = test system: Stage IV primary adenocarcinoma of the lung; assay: Tavocept Phase III Clinical Trial (interim analysis); type: in vivo, human
# Text: In the Tavocept Phase III Clinical Trial pre-specification was made through stratification factors including sex (i.e., male versus female) and taxane treatment (i.e., paclitaxel versus docetaxel). Eligible patients had not received prior drug treatment for their cancer, and inclusion in the trial was also allowed for patients who had relapsed following surgery for earlier stage disease as well as patients with central nervous system metastasis. A total of 540 patients were enrolled on the trial.
# The primary endpoint of this study was overall survival (OS); defined as the time period from the date of patient randomization to the date of death due to any cause.
# Patient eligibility was determined by compliance with protocol-specified inclusion and exclusion criteria.
# All patients received standard combination chemotherapy (taxane agent plus cisplatin) and either Tavocept or placebo.
# Treatment was administered every 3 weeks for a maximum of 6 cycles (one treatment cycle=21 days).
# The primary endpoint for analysis was the duration of overall survival, defined as the time from the date of randomization to the date of death due to any cause. The number of mortality events used for the final analysis depended upon the number of patients enrolled into the study (provided the sample size was adjusted at the interim analysis). For the primary analysis, the expected number of total mortality events was approximately 416 mortality events for a sample size of 575 patients.
# The one-sided log-rank test was performed in order to allow the application of the adaptive methodology. Details of this 2-stage adaptive design are described below. Kaplan-Meier survival curves (including identification of censored observations) was presented by treatment group, as well as median survival times and their 95% confidence intervals.
# The following specific endpoints were evaluated with pre-specified analyses in order to evaluate for potential clinically and statistically significant differences between Tavocept- and placebo-treated patients.
# The incidence of cisplatin renal toxicity and anemia, and the impact of emesis on daily life were analyzed using the Cochran-Mantel-Haenszel (CMH) tests for proportions. The CMH test was applied in the comparison between Tavocept and placebo where adjustment for prognostic factors is clinically important (e.g., adjusting for baseline characteristics). To control for Type I error due to multiple comparisons of safety data, a nominal, 2-sided p-value of less than 0.0125 was used for each comparison of renal toxicity, anemia, and emesis.
# Aminopeptidase N = Aminopeptidase N (Homo sapiens, UniProt P15144); assay: Aminopeptidase N activity (summary Table 27); type: biochemical
# Chain of Aminopeptidase N (P15144 whole entry): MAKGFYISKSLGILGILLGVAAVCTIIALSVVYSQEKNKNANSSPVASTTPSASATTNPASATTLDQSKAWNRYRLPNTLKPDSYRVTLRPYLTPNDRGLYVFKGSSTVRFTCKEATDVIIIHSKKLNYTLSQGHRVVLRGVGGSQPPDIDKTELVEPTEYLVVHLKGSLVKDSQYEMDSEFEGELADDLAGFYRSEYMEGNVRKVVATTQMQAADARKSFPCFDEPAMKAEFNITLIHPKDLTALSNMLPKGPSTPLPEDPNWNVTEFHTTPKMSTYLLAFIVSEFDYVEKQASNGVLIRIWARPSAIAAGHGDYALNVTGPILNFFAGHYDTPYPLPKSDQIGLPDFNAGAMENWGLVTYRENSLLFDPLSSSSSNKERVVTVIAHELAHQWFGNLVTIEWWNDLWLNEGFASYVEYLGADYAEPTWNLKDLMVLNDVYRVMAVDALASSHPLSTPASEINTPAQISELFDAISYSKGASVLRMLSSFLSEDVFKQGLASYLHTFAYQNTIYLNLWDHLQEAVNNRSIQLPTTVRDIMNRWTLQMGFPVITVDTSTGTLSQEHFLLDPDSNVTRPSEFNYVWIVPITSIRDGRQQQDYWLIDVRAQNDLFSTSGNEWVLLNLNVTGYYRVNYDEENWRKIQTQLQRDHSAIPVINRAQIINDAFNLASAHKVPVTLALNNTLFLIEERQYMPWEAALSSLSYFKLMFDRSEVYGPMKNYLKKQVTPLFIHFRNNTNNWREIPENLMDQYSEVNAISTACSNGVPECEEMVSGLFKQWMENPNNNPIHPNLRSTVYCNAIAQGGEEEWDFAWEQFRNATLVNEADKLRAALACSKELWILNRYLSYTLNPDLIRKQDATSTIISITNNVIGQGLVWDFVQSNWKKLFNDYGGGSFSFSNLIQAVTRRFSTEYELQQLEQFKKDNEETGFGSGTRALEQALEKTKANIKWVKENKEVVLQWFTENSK
# γ-Glutamyltranspeptidase = γ-Glutamyltranspeptidase (Homo sapiens, UniProt P19440); assay: γ-Glutamyltranspeptidase activity (summary Table 27); type: biochemical
# Chain of γ-Glutamyltranspeptidase (P19440 whole entry): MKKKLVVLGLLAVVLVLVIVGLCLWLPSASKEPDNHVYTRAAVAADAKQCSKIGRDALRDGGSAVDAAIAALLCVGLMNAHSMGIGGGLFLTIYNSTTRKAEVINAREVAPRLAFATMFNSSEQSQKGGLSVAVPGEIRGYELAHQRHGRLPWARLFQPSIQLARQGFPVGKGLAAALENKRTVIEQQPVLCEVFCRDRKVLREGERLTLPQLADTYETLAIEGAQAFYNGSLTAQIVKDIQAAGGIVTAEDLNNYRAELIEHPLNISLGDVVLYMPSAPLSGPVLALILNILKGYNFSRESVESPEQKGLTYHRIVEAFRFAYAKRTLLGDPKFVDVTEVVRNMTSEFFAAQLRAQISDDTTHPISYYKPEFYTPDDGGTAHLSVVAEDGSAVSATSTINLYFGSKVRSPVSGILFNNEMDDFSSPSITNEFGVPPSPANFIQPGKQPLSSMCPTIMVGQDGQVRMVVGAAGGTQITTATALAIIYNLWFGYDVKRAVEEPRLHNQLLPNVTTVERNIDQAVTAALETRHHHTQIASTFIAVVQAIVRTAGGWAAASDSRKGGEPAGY
# recombinant human Prx 1 = recombinant human Prx 1 (Homo sapiens, UniProt Q06830); assay: Prx assay coupled to Trx, TrxR and NADPH; type: biochemical; details: initial velocity
# Chain of recombinant human Prx 1 (Q06830 whole entry): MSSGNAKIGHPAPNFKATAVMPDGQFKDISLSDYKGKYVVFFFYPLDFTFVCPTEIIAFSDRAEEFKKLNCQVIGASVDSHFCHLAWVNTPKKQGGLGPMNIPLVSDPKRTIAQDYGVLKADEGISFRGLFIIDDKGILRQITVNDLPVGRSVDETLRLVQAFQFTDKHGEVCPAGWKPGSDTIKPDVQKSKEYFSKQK
# Method: Prx activity in the buffer control (Apo-Prx) and the Tavocept-treated sample (Prx-mesna) was determined using the Prx assay outlined in FIG. 58. A typical assay mixture was 150 μL in final volume and contained HEPES Buffer (45 mM, pH 7.0, 1 mM EDTA), 350 μM NADPH, 0.12 μM rat liver TrxR, 80 μM insulin, 2.9 μM human Trx 1, and Prx (4.8 or 2.4 μM per assay). Assays were initiated by the addition of H2O2 (100 μM) and were monitored at 340 nm at 25° C. for 30 minutes using a using a Molecular Devices SpectraMax Plus UV/vis plate reader. Activity was calculated using a 4 minute linear portion of each assay and then this rate was converted into percent of control with the buffer treated Prx 1 reaction (Apo-Prx) serving as a 100% control. See, FIG. 59. […] This reduction in rate is approximately 43% in assays containing 2.4 μM Prx and 23% in assays containing 4.8 μM Prx. See, FIG. 59. […] Therefore, as the concentration of unmodified Prx increases, the turnover more nearly approaches the buffer control Apo-Prx samples.
# [3] = target: human peroxiredoxin 4 (PRX4) (Homo sapiens, UniProt Q13162); assay: X-ray crystallography and Mass Spectrometry of Prx 4 with Tavocept-derived mesna; details: 40 mM Tavocept; MS and X-ray
# Chain of human peroxiredoxin 4 (PRX4) (Q13162 79-271 limits assumed): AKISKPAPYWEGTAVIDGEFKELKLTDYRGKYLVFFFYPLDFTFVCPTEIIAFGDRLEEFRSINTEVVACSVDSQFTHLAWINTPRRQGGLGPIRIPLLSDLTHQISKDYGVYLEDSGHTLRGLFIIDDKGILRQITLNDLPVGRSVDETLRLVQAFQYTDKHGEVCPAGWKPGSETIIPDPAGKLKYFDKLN
compound,measurement,setting,value
"O=S(=O)([O-])CCSSCCS(=O)(=O)[O-].[Na+].[Na+] [Tavocept, disodium 2,2′-dithio-bis-ethane sulfonate]",Inhibition of farnesylation,[1],inhibits farnesylation in a concentration-dependent manner
same,Reduction by TrxR alone,bovine TrxR; Reaction A,did not detectably reduce
same,"NADPH Oxidation, Reaction A","bovine TrxR; TrxR alone + NADPH, no Trx, disulfide 0.5 mM",0.3 ± 0.01 nmol/min/mL
same,Median survival advantage versus placebo,[2]; Male & Female Non-Smokers receiving paclitaxel and cisplatin,12 months
same,Median survival advantage versus placebo,[2]; PS 1 ECOG Performance Status males and females receiving paclitaxel and cisplatin,4.0 months
same,Overall median survival advantage versus placebo,"[2]; all subjects, paclitaxel or docetaxel plus cisplatin",greater than 2 month
same,Protection against chemotherapy-induced kidney toxicity,[2]; compared to placebo,improvement in the relative creatine decrease from baseline in favor of Tavocept
same,Anemia,[2]; compared to placebo arm,reduced anemia
same,Kaplan Meier overall survival curve slope,"[2]; during administration of up to 6 cycles, relative to Placebo arm",flattening of the slope of the survival curve for the Tavocept arm
same,Median survival advantage versus placebo,[2]; female subjects greater than or equal to 65 years of age receiving paclitaxel and cisplatin,2.1 months
same,Survival advantage,"[2]; female subjects with CNS Metastases present, paclitaxel plus cisplatin",Survival advantage in favor of Tavocept
same,Median survival advantage versus placebo,[2]; male and female subjects greater than or equal to 65 years of age receiving paclitaxel and cisplatin,3.5 months
same,"Median period of additional survival after starting new chemotherapy, longer than placebo-treated patients","[2]; patients previously receiving Tavocept, paclitaxel and cisplatin",3.4 months
same,Median survival advantage versus placebo,[2]; subjects greater than or equal to 65 years of age,3 months
same,Cellular consequence of BNP7787-modification and/or modulation: aminopeptidase N,Aminopeptidase N,can inhibit γ-glutamyltranspeptidase and aminopeptidase N enzyme
same,Cellular consequence of BNP7787-modification and/or modulation: γ-glutamyltranspeptidase,γ-Glutamyltranspeptidase,can inhibit γ-glutamyltranspeptidase and aminopeptidase N enzyme
same,activity of Tavocept-modified Prx versus Apo-Prx,recombinant human Prx 1,less active
same,Prx 4 cysteine residues carrying Tavocept-derived mesna moiety,[3],Cys124; also recorded: cysteine 124 (and possibly cysteine 245)
